Values after ≈ are worked out from the molar mass of the structure shown. “Also recorded” adds a separate entry of the source. Like-named read-outs stand apart in the source and are kept apart here.
Tests used:
Type in all cases: physicochemical
[1] = Solid-state stability of crystal forms at ambient conditions
Text: The following sections describe and summarize the physical properties of each of the crystal forms observed for mirdametinib.

[2] = Physical stability of amorphous mirdametinib on storage (PXRD, PLM)
Method: Solutions of mirdametinib (100 mg/mL) were prepared in methanol and THF, and each solution was divided into three equal parts to be used for 1) open at RT stability evaluation, 2) closed at RT stability evaluation, and 3) closed at −20° C. stability evaluation.
PXRD analyses of all six samples (three from both methanol and THF) following rapid evaporation indicated an amorphous state. Other analyses (e.g. PLM, TGA-IR, DSC) were performed on one sample from each solvent. Following initial analyses, one sample from each solvent was stored at RT in an open vial, at RT in a capped vial, and at −20° C. in a capped vial.

[3] = Drying of certain forms via vacuum oven at 45° C.; conditions: overnight in vacuum oven at 45° C.; PXRD at about 70% ambient lab humidity
Method: Drying studies for certain forms were conducted overnight in a vacuum oven at 45° C. After drying, samples were equilibrated to RT for 10 min. and analyzed by PXRD at about 70% ambient lab humidity.

[4] = Desolvation/dehydration by heating in TGA pan to 100° C.; conditions: 15° C./min from 25 to 100° C., 5 min. hold at 100° C., air-cooled to RT
Method: Desolvation/dehydration studies of certain forms were conducted in a TGA pan with loose lid at a heating rate of 15° C./min from 25 to 100° C. with a 5 min. hold at 100° C. Samples were air-cooled to RT on the TGA and analyzed by PXRD if crystalline. […] PXRD indicated Form I.

[5] = Approximate kinetic solubility (visual, solvent aliquot addition); conditions: thermodynamic from solid; for solubility: read-out: Solubility (mg/mL)at RT (23° C.); for solubility at 1 h: heated to 40° C. for 1 hour, read-out: Solubility (mg/mL) at 40° C.
Method: Solubility of mirdametinib prepared by Example 3 was assessed in 30 solvents. The solubility was visually estimated at room temperature (RT; ˜23° C.) by dosing small aliquots of solvent into a fixed amount of solid (˜10 mg) until the dissolution point or a maximum volume (1.8 mL) was reached. Samples that contained undissolved solids at RT were heated to 40° C. for 1 hour and the dissolution was assessed visually. The solubility data are shown below in Table 1.

For `O=C(NOC[C@H](O)CO)c1ccc(F)c(F)c1Nc1ccc(I)cc1F` [Form XIV, N—((R)-2,3-dihydroxypropoxy)-3,4-difluoro-2-(2-fluoro-4-iodo-phenylamino)-benzamide], the “Conversion at ambient conditions (in words)” value ([1]; ambient conditions) was “convert to Form IV within four days”.
For `O=C(NOC[C@H](O)CO)c1ccc(F)c(F)c1Nc1ccc(I)cc1F` [Form A-1a], the “Solid state by PXRD and PLM after one day” value (“Solid state by PXRD and PLM” for short) ([2]; open vial at RT) was “no crystallization”.
For `O=C(NOC[C@H](O)CO)c1ccc(F)c(F)c1Nc1ccc(I)cc1F` [Form A-2a], the “Solid state by PXRD and PLM” value ([2]; open vial at RT) was “crystallization to Form IV”.
In the case of `O=C(NOC[C@H](O)CO)c1ccc(F)c(F)c1Nc1ccc(I)cc1F` [Form XIII, N—((R)-2,3-dihydroxypropoxy)-3,4-difluoro-2-(2-fluoro-4-iodo-phenylamino)-benzamide], the “Form after vacuum oven drying (PXRD)” value [3] is reported as “Form XIII/Form IV mixture converted to Form IV”.
For `O=C(NOC[C@H](O)CO)c1ccc(F)c(F)c1Nc1ccc(I)cc1F` [Form XIX, N—((R)-2,3-dihydroxypropoxy)-3,4-difluoro-2-(2-fluoro-4-iodo-phenylamino)-benzamide], the “Stable in a capped vial for” value ([1]; capped vial) was at least 2 weeks, the “Form after vacuum oven drying (PXRD)” value [3] was “Remained unchanged” and the “Result of desolvation/dehydration by heating” value [4] was “solid particles (not melted). PXRD indicated Form I”.
In the case of `O=C(NOC[C@H](O)CO)c1ccc(F)c(F)c1Nc1ccc(I)cc1F` [Form VI, N—((R)-2,3-dihydroxypropoxy)-3,4-difluoro-2-(2-fluoro-4-iodo-phenylamino)-benzamide], the “Stable in solid-state at ambient conditions for” value ([1]; solid-state, ambient conditions) is reported as at least 2 weeks, the “Form after vacuum oven drying (PXRD)” value [3] is reported as “Partially converted to Form A” and the “Result of desolvation/dehydration by heating” value [4] is reported as “melted and solidified in molten, amorphous state, possible decomposition”.
With `O=C(NOC[C@H](O)CO)c1ccc(F)c(F)c1Nc1ccc(I)cc1F` [Form A-1] the “Results (solid form after 1 day at ambient)” value [2] was “Amorphous”.
In the case of `O=C(NOC[C@H](O)CO)c1ccc(F)c(F)c1Nc1ccc(I)cc1F` [Form XXI, N—((R)-2,3-dihydroxypropoxy)-3,4-difluoro-2-(2-fluoro-4-iodo-phenylamino)-benzamide], the “Conversion noted under Nature of Solvate (Table 2)” value [1] is reported as “(converts to Form IV)”.
Compound `O=C(NOC[C@H](O)CO)c1ccc(F)c(F)c1Nc1ccc(I)cc1F` [mirdametinib, N—((R)-2,3-dihydroxypropoxy)-3,4-difluoro-2-(2-fluoro-4-iodo-phenylamino)-benzamide] has a solubility ([5]; 1-propanol, 23 °C, organic solvent or mixture) of 101 to 202 mg/mL (≈ 209 to 419 mM), a solubility ([5]; 2-methyl-2-butanol, 23 °C, organic solvent or mixture) of 97 to 194 mg/mL (≈ 201 to 402 mM) and a solubility ([5]; 2-propanol (IPA), 23 °C, organic solvent or mixture) of 98 to 196 mg/mL (≈ 203 to 406 mM). It also gave a solubility ([5]; 23 °C, organic solvent or mixture, 2-Propanol: water (9:1 v/v)) of over 400 mg/mL, a solubility ([5]; DMF (dimethylformamide), 23 °C, organic solvent or mixture) of over 408 mg/mL and a solubility ([5]; Dioxane, 23 °C, organic solvent or mixture) of over 408 mg/mL. For the same compound, the solubility ([5]; Ethanol/Water (9:1 v/v), 23 °C, organic solvent or mixture) was over 424 mg/mL, the solubility ([5]; MIBK (4-methyl-2-pentanone), 23 °C, organic solvent or mixture) was 48 to 95 mg/mL (≈ 99.5 to 197 mM) and the solubility ([5]; MTBE (methyl-t-butylether), 23 °C, organic solvent or mixture) was under 6 mg/mL. The solubility ([5]; MeCN/Water (7:3 v/v), 23 °C, organic solvent or mixture) was over 408 mg/mL, the solubility ([5]; MeCN/water (8:2 v/v), 23 °C, organic solvent or mixture) was over 412 mg/mL and the solubility ([5]; acetic acid (HOAc), 23 °C, organic solvent or mixture) was over 388 mg/mL. For the same compound, the solubility ([5]; acetone, 23 °C, organic solvent or mixture) was over 400 mg/mL, the solubility ([5]; acetonitrile (MeCN), 23 °C, organic solvent or mixture) was 19 to 49 mg/mL (≈ 39.4 to 102 mM) and the solubility ([5]; chloroform, 23 °C, organic solvent or mixture) was under 6 mg/mL. It also gave a solubility ([5]; cyclohexane, 23 °C, organic solvent or mixture) of under 6 mg/mL, a solubility ([5]; dichloromethane (DCM), 23 °C, organic solvent or mixture) of under 6 mg/mL and a solubility ([5]; dimethyl sulfoxide (DMSO), 23 °C, organic solvent or mixture) of over 388 mg/mL. For the same compound, the solubility ([5]; dimethylcarbonate (DMC), 23 °C, organic solvent or mixture) was 10 to 19 mg/mL (≈ 20.7 to 39.4 mM), the solubility ([5]; ethanol, 23 °C, organic solvent or mixture) was 208 to 416 mg/mL (≈ 431 to 863 mM) and the solubility ([5]; ethanol/toluene (9:1), 23 °C, organic solvent or mixture) was 210 to 420 mg/mL (≈ 436 to 871 mM). It also gave a solubility ([5]; ethyl acetate (EtOAc), 23 °C, organic solvent or mixture) of 48 to 95 mg/mL (≈ 99.5 to 197 mM), a solubility ([5]; isopropyl ether (IPE), 23 °C, organic solvent or mixture) of under 6 mg/mL and a solubility ([5]; methanol (MeOH), 23 °C, organic solvent or mixture) of over 380 mg/mL. The solubility ([5]; nitromethane, 23 °C, organic solvent or mixture) was 10 to 20 mg/mL (≈ 20.7 to 41.5 mM), the solubility at 1 h ([5]; organic solvent or mixture, Chloroform) was under 6 mg/mL and the solubility at 1 h ([5]; organic solvent or mixture, Cyclohexane) was under 6 mg/mL. For the same compound, the solubility at 1 h ([5]; organic solvent or mixture, Dichloromethane (DCM)) was over 6 mg/mL, the solubility at 1 h ([5]; organic solvent or mixture, Isopropyl ether (IPE)) was under 6 mg/mL and the solubility at 1 h ([5]; organic solvent or mixture, MTBE (methyl-t-butylether)) was over 6 mg/mL. For the same compound, the solubility ([5]; organic solvent or mixture, Tert-butanol (t-BuOH), solubility determined at 30° C. (footnote)) was 6 to 10 mg/mL (≈ 12.4 to 20.7 mM), the solubility at 1 h ([5]; organic solvent or mixture, Toluene) was under 6 mg/mL and the solubility ([5]; tetrahydrofuran (THF), 23 °C, organic solvent or mixture) was over 396 mg/mL. For the same compound, the solubility at 1 h ([5]; Water) was under 6 mg/mL, the solubility ([5]; toluene, 23 °C, organic solvent or mixture) was under 6 mg/mL and the solubility ([5]; trifluoroethanol (TFE), 23 °C, organic solvent or mixture) was 7 to 12 mg/mL (≈ 14.5 to 24.9 mM). For the same compound, the solubility ([5]; water, 23 °C, water) was under 6 mg/mL.
In the case of `O=C(NOC[C@H](O)CO)c1ccc(F)c(F)c1Nc1ccc(I)cc1F` [Form XX, N—((R)-2,3-dihydroxypropoxy)-3,4-difluoro-2-(2-fluoro-4-iodo-phenylamino)-benzamide], the “Time to convert to Form IV at ambient conditions” value ([1]; ambient conditions) is reported as at most 10 days.
In the case of `O=C(NOC[C@H](O)CO)c1ccc(F)c(F)c1Nc1ccc(I)cc1F` [A- 2], the “Results (solid form after 1 day at ambient)” value [2] is reported as “Form IV”.
With `O=C(NOC[C@H](O)CO)c1ccc(F)c(F)c1Nc1ccc(I)cc1F` [Form A-1b] the “Solid state by PXRD and PLM” value ([2]; capped vial at RT) was “no crystallization”.
With `O=C(NOC[C@H](O)CO)c1ccc(F)c(F)c1Nc1ccc(I)cc1F` [Form IX, N—((R)-2,3-dihydroxypropoxy)-3,4-difluoro-2-(2-fluoro-4-iodo-phenylamino)-benzamide] the “Conversion at ambient conditions (in words)” value ([1]; ambient conditions) was “significant conversion toward Form IV after 20 hours; also recorded: slowly convert to Form IV”.
For `O=C(NOC[C@H](O)CO)c1ccc(F)c(F)c1Nc1ccc(I)cc1F` [Amorphous mirdametinib, N—((R)-2,3-dihydroxypropoxy)-3,4-difluoro-2-(2-fluoro-4-iodo-phenylamino)-benzamide], the “Physically stable for” value ([2]; open and closed vials at RT) was “at least 24 hours”.
In the case of `O=C(NOC[C@H](O)CO)c1ccc(F)c(F)c1Nc1ccc(I)cc1F` [Form VIII, N—((R)-2,3-dihydroxypropoxy)-3,4-difluoro-2-(2-fluoro-4-iodo-phenylamino)-benzamide], the “Stable at ambient conditions for” value ([1]; ambient conditions) is reported as at least 2 days.

Source: US12275688B2, “Crystalline solids of MEK inhibitor N-((R)-2,3-dihydroxypropoxy)-3,4-difluoro-2-(2-fluoro-4-iodo-phenylamino)-benzamide and uses thereof” (SpringWorks Therapeutics, Inc., priority 2021, dated 2025)
